Assay results reported in PubChem BioAssay (NCI).
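GI50: concentration for 50% inhibition of growth. TGI denotes the concentration required for complete inhibition of growth.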

Experiments:
Assay in all cases: inhibition of tumour cell growth, NCI panel, 384-well format
HCT-15 colon = tested on: HCT-15 colon
SNB-19 CNS = tested on: SNB-19 CNS
SF-539 CNS = tested on: SF-539 CNS
UO-31 renal = tested on: UO-31 renal
MALME-3M melanoma = tested on: MALME-3M melanoma
DU-145 prostate = tested on: DU-145 prostate
RPMI-8226 leukemia = tested on: RPMI-8226 leukemia
CCRF-CEM leukemia = tested on: CCRF-CEM leukemia
HT29 colon = tested on: HT29 colon
SR leukemia = tested on: SR leukemia
A498 renal = tested on: A498 renal
UACC-257 melanoma = tested on: UACC-257 melanoma
786-0 renal = tested on: 786-0 renal
TK-10 renal = tested on: TK-10 renal
NCI-H460 NSCLC = tested on: NCI-H460 NSCLC
PC-3 prostate = tested on: PC-3 prostate
SK-MEL-28 melanoma = tested on: SK-MEL-28 melanoma
U251 glioblastoma = tested on: U251 glioblastoma
MDA-MB-468 breast = tested on: MDA-MB-468 breast
NCI-H23 lung = tested on: NCI-H23 lung
MCF7 breast = tested on: MCF7 breast
COLO 205 colon = tested on: COLO 205 colon
HCT-116 colon = tested on: HCT-116 colon
LOX IMVI melanoma = tested on: LOX IMVI melanoma
UACC-62 melanoma = tested on: UACC-62 melanoma
RXF 393 renal = tested on: RXF 393 renal
T-47D breast = tested on: T-47D breast
SN12C renal = tested on: SN12C renal
NCI-H322M lung = tested on: NCI-H322M lung
K-562 leukemia = tested on: K-562 leukemia
SF-295 CNS = tested on: SF-295 CNS
OVCAR-4 ovarian = tested on: OVCAR-4 ovarian
OVCAR-8 ovarian = tested on: OVCAR-8 ovarian
SF-268 CNS = tested on: SF-268 CNS
OVCAR-5 ovarian = tested on: OVCAR-5 ovarian
CAKI-1 renal = tested on: CAKI-1 renal
SW-620 colon = tested on: SW-620 colon
SK-MEL-5 melanoma = tested on: SK-MEL-5 melanoma
M14 melanoma = tested on: M14 melanoma
MDA-MB-231 breast = tested on: MDA-MB-231 breast
A549 NSCLC = tested on: A549 NSCLC
IGROV1 ovarian = tested on: IGROV1 ovarian
HOP-92 NSCLC = tested on: HOP-92 NSCLC
KM12 colon = tested on: KM12 colon
MOLT-4 leukemia = tested on: MOLT-4 leukemia
HCC-2998 colon = tested on: HCC-2998 colon
NCI-H522 lung = tested on: NCI-H522 lung
SK-OV-3 ovarian = tested on: SK-OV-3 ovarian
NCI-H226 lung = tested on: NCI-H226 lung
MDA-MB-435 melanoma = tested on: MDA-MB-435 melanoma
BT-549 breast = tested on: BT-549 breast
HOP-62 NSCLC = tested on: HOP-62 NSCLC
OVCAR-3 ovarian = tested on: OVCAR-3 ovarian
SK-MEL-2 melanoma = tested on: SK-MEL-2 melanoma
NCI/ADR-RES ovarian = tested on: NCI/ADR-RES ovarian
HL-60(TB) leukemia = tested on: HL-60(TB) leukemia
ACHN renal = tested on: ACHN renal

## COc1ccc(-c2c(-c3ccc(C#N)c(F)c3)nc(N3CCC(N)CC3)n(C)c2=O)cc1F
HCT-15 colon
  GI50: 15.7 µM
  TGI: 29.3 µM
SNB-19 CNS
  GI50: 18 µM
  TGI: 32.1 µM
SF-539 CNS
  GI50: 13.8 µM
  TGI: 26.8 µM
UO-31 renal
  GI50: 13.3 µM
  TGI: 26.1 µM
MALME-3M melanoma
  GI50: 2.46 µM
  TGI: 6.58 µM
DU-145 prostate
  GI50: 15.1 µM
  TGI: 28.9 µM
RPMI-8226 leukemia
  GI50: 7.53 µM
  TGI: 19.6 µM
CCRF-CEM leukemia
  GI50: 13 µM
  TGI: 25.8 µM
HT29 colon
  GI50: 9.51 µM
  TGI: 21.6 µM
SR leukemia
  GI50: 1.69 µM
  TGI: 3.06 µM
A498 renal
  GI50: 2.29 µM
  TGI: 7.42 µM
UACC-257 melanoma
  GI50: 1.71 µM
  TGI: 3.16 µM
786-0 renal
  GI50: 10.6 µM
  TGI: 22.5 µM
TK-10 renal
  GI50: 14.3 µM
  TGI: 27.5 µM
NCI-H460 NSCLC
  GI50: 3.41 µM
  TGI: 10.9 µM
PC-3 prostate
  GI50: 13.8 µM
  TGI: 26.8 µM
SK-MEL-28 melanoma
  GI50: 10.7 µM
  TGI: 22.6 µM
U251 glioblastoma
  GI50: 12.2 µM
  TGI: 24.7 µM
MDA-MB-468 breast
  GI50: 9.92 µM
  TGI: 21.5 µM
NCI-H23 lung
  GI50: 11.2 µM
  TGI: 28.6 µM
MCF7 breast
  GI50: 3.06 µM
  TGI: 9 µM
COLO 205 colon
  GI50: 12 µM
  TGI: 24.3 µM
HCT-116 colon
  GI50: 6.86 µM
  TGI: 19.8 µM
LOX IMVI melanoma
  GI50: 19.2 µM
  TGI: 33.3 µM
UACC-62 melanoma
  GI50: 2.18 µM
  TGI: 5.43 µM
RXF 393 renal
  GI50: 2.69 µM
  TGI: 9.41 µM
T-47D breast
  GI50: 10.4 µM
  TGI: 22.1 µM
SN12C renal
  GI50: 12.9 µM
  TGI: 25.6 µM
NCI-H322M lung
  GI50: 14.3 µM
  TGI: 28.3 µM
K-562 leukemia
  GI50: 11.8 µM
  TGI: 24.1 µM
SF-295 CNS
  GI50: 16.8 µM
  TGI: 30.4 µM
OVCAR-4 ovarian
  GI50: 14.3 µM
  TGI: 27.6 µM
OVCAR-8 ovarian
  GI50: 14.5 µM
  TGI: 27.6 µM
SF-268 CNS
  GI50: 14.1 µM
  TGI: 27.1 µM
OVCAR-5 ovarian
  GI50: 14.7 µM
  TGI: 28.2 µM
CAKI-1 renal
  GI50: 8.69 µM
  TGI: 20.8 µM
SW-620 colon
  GI50: 15.3 µM
  TGI: 28.7 µM
SK-MEL-5 melanoma
  GI50: 14.4 µM
  TGI: 27.5 µM
M14 melanoma
  GI50: 4.89 µM
  TGI: 16.6 µM
MDA-MB-231 breast
  GI50: 13.2 µM
  TGI: 25.9 µM
A549 NSCLC
  GI50: 16.7 µM
  TGI: 30.5 µM
IGROV1 ovarian
  GI50: 13.9 µM
  TGI: 26.9 µM
HOP-92 NSCLC
  GI50: 6.55 µM
  TGI: 19.1 µM
KM12 colon
  GI50: 13.1 µM
  TGI: 25.9 µM
MOLT-4 leukemia
  GI50: 1.78 µM
  TGI: 3.17 µM
HCC-2998 colon
  GI50: 11 µM
  TGI: 23 µM
NCI-H522 lung
  GI50: 11.7 µM
  TGI: 24 µM
SK-OV-3 ovarian
  GI50: 12 µM
  TGI: 24.4 µM
NCI-H226 lung
  GI50: 1.75 µM
  TGI: 3.27 µM
MDA-MB-435 melanoma
  GI50: 13.5 µM
  TGI: 26.4 µM
BT-549 breast
  GI50: 11.6 µM
  TGI: 23.9 µM
HOP-62 NSCLC
  GI50: 15.3 µM
  TGI: 28.7 µM
OVCAR-3 ovarian
  GI50: 13.2 µM
  TGI: 26 µM
SK-MEL-2 melanoma
  GI50: 5.12 µM
  TGI: 17.8 µM
NCI/ADR-RES ovarian
  GI50: 16.5 µM
  TGI: 30.3 µM
HL-60(TB) leukemia
  GI50: 3.89 µM
  TGI: 15.1 µM
ACHN renal
  GI50: 12.4 µM
  TGI: 24.9 µM
